Test systems include HCT-116 colon; HT29 colon; KM12 colon; NCI-H226 lung; A549 NSCLC; LOX IMVI melanoma; SW-620 colon; SK-MEL-2 melanoma; TK-10 renal; M14 melanoma.
Holding throughout (assay): DTP human tumour cell line panel, 48 h

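All cell lines were grown in 96-well plates and treated with compound for 48 hours. Abbreviation: GI50, concentration required for 50% inhibition of growth. TGI: concentration producing complete growth inhibition.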 A value given as a limit tells only on which side of the number the result lay.

Broadly, the GI50 is the concentration at which growth is held to half of that of the control. Usually TGI stands for the concentration at which net growth stops. Read a low TGI as greater sensitivity of the cells. Regarding `Cc1cc([NH-])c([NH-])cc1C.[Cl][Pt+2][Cl]`, the GI50 in the assay on HCT-116 colon was 14.2 µM; with HT29 colon, 16.6 µM; in the assay with KM12 colon it was 24.5 µM; in the assay with NCI-H226 lung, 13.5 µM; in the assay with A549 NSCLC, 49 µM; in the assay with LOX IMVI melanoma, 7.9 µM. Moreover, the GI50 with SW-620 colon is 5.06 µM. The TGI is 32.9 µM with HCT-116 colon; 40 µM in the assay with HT29 colon; greater than 100 µM with KM12 colon; 64 µM in the assay on NCI-H226 lung; greater than 100 µM in the assay on A549 NSCLC; 17.6 µM in the assay on LOX IMVI melanoma. The same compound showed a total growth inhibition concentration (TGI) in the assay with SW-620 colon of 27 µM.
As for `Cc1ccc2c(c1)-c1nc(N)c(C#N)c(-c3ccc(Cl)cc3)c1CCS2(=O)=O`, the TGI in the assay on HCT-116 colon is greater than 100 µM; with HT29 colon, 63.2 µM; with KM12 colon it was greater than 100 µM; in the assay on SK-MEL-2 melanoma, greater than 100 µM; with TK-10 renal it was greater than 100 µM; with NCI-H226 lung, greater than 100 µM. For the same compound, the TGI in the assay with A549 NSCLC, in the assay on LOX IMVI melanoma and in the assay with SW-620 colon was greater than 100 µM in each case.
For the compound `COc1ccc(N2CC(=O)N(C(=O)COc3ccc(OCC(=O)N4C(=O)CN(c5ccc(OC)cc5)C4=S)cc3)C2=S)cc1`, the concentration for total growth inhibition (TGI) in the assay on HCT-116 colon was 63.3 µM; in the assay on M14 melanoma, greater than 100 µM; in the assay on HT29 colon it was greater than 100 µM; in the assay with KM12 colon it was greater than 100 µM; in the assay with SK-MEL-2 melanoma, greater than 100 µM; in the assay with TK-10 renal it was greater than 100 µM. Besides, the total growth inhibition concentration (TGI) in the assay with NCI-H226 lung, with A549 NSCLC and with SW-620 colon was greater than 100 µM each time.
For the compound `CC12CCC(CC(=O)/C1=C(/Br)I)C2(C)C` (stereo not drawn), the concentration for total growth inhibition (TGI) in the assay on HCT-116 colon was determined as 24.9 µM; in the assay with M14 melanoma, 28.3 µM; in the assay with HT29 colon, 25 µM; in the assay on KM12 colon, 32 µM; with SK-MEL-2 melanoma, 30.3 µM; in the assay with TK-10 renal, 32.9 µM. The TGI in the assay on NCI-H226 lung was determined as 29.9 µM; in the assay with A549 NSCLC, 29.3 µM; in the assay with SW-620 colon it was 34.4 µM.
`O=C(Nc1ccccc1F)c1cc2ccc(O)cc2oc1=Nc1cccc(F)c1`: the concentration for total growth inhibition (TGI) in the assay on HCT-116 colon was 24.8 µM; with M14 melanoma it was 38.6 µM; in the assay on HT29 colon, greater than 100 µM; with KM12 colon, 44.7 µM; with SK-MEL-2 melanoma it was 62.6 µM; with A549 NSCLC it was 33.7 µM. Besides, the TGI worked out at 22.9 µM in the assay on LOX IMVI melanoma and 32.6 µM in the assay on SW-620 colon.
Take `O=C1C=CC(=O)c2c1ccc1c3ccccc3n(Cc3ccc([N+](=O)[O-])cc3)c21`: the concentration for total growth inhibition (TGI) with HCT-116 colon, with M14 melanoma, in the assay with HT29 colon, in the assay on KM12 colon, in the assay on TK-10 renal and in the assay on NCI-H226 lung was greater than 100 µM each time. The concentration for total growth inhibition (TGI) in the assay with A549 NSCLC and in the assay on SW-620 colon was greater than 100 µM in each case.
Turning to `CCNCCNC(=O)c1ccc(I)cc1`, the total growth inhibition concentration (TGI) with M14 melanoma, in the assay on HT29 colon, in the assay on KM12 colon, with TK-10 renal, in the assay on NCI-H226 lung and in the assay with A549 NSCLC was greater than 100 µM throughout. In addition, the total growth inhibition concentration (TGI) in the assay on LOX IMVI melanoma and with SW-620 colon was greater than 100 µM in each case.
With `COC1=NCc2ccccc2-c2ccccc21`, the total growth inhibition concentration (TGI) in the assay on HCT-116 colon, in the assay with HT29 colon, in the assay with KM12 colon, in the assay with SK-MEL-2 melanoma, in the assay on TK-10 renal and in the assay with NCI-H226 lung was greater than 100 µM throughout. Besides, the TGI with A549 NSCLC and in the assay with LOX IMVI melanoma was greater than 100 µM each time.
For the compound `CC(=O)O[C@H]1CC(C)(C)C(=C=C/C(C)=C/C=C/C=C/C=C(C)/C=C2C=C(/C=C/[C@@]34O[C@]3(C)C[C@@H](O)CC4(C)C)C(=O)O/2)[C@](C)(O)C1`, the TGI with HCT-116 colon is 50.5 µM; in the assay with M14 melanoma it was 25.6 µM; with HT29 colon, greater than 100 µM; in the assay on KM12 colon, 46.5 µM; with SK-MEL-2 melanoma it was 17.6 µM; in the assay on TK-10 renal, 21.3 µM. The results for the total growth inhibition concentration (TGI) with NCI-H226 lung, in the assay on A549 NSCLC and in the assay with SW-620 colon were 4.88 µM, 50.2 µM and greater than 100 µM, respectively.
Regarding `C#CCNC(CSSCC(N)C(=O)O)C(=O)O` (stereo not drawn), the total growth inhibition concentration (TGI) in the assay on HCT-116 colon, in the assay on M14 melanoma, with HT29 colon, in the assay with KM12 colon, with SK-MEL-2 melanoma and in the assay on TK-10 renal was greater than 100 µM each time. In addition, the TGI in the assay on NCI-H226 lung, in the assay on A549 NSCLC and in the assay on SW-620 colon was greater than 100 µM throughout.
`O=c1[nH]c2nc3ccccc3c(=O)n2/c1=C/c1ccc(Cl)cc1`: the concentration for total growth inhibition (TGI) in the assay on HCT-116 colon, in the assay on M14 melanoma, in the assay with KM12 colon, with SK-MEL-2 melanoma, in the assay on TK-10 renal and in the assay on A549 NSCLC was greater than 100 µM each time. For the same compound, the results for the TGI with LOX IMVI melanoma and in the assay on SW-620 colon were greater than 100 µM and 59.7 µM, respectively.
As to `CC(=O)NC1C(OCc2ccccc2)OC(CO)C(O)C1OCC(=O)N1CCCC1C(=O)N[C@@H](CCC(=O)NCCCCNc1c2ccccc2nc2cccc([N+](=O)[O-])c12)C(N)=O` (stereo partly drawn), the concentration for total growth inhibition (TGI) in the assay with HCT-116 colon is 64.6 µM; in the assay on M14 melanoma it was 40.5 µM; in the assay with HT29 colon it was 50.2 µM; in the assay with KM12 colon, greater than 100 µM; in the assay with SK-MEL-2 melanoma, 32.7 µM; in the assay on TK-10 renal, greater than 100 µM. Also, the TGI in the assay on NCI-H226 lung is greater than 100 µM; with A549 NSCLC it was 37.8 µM; in the assay on SW-620 colon it was 65.7 µM.
For `COC(=O)C1(NC(=O)C(CC(=O)OCc2ccccc2)NC(=O)OCc2ccccc2)CCCCCC1` (stereo not drawn), the total growth inhibition concentration (TGI) in the assay on HCT-116 colon was greater than 100 µM; with M14 melanoma it was greater than 100 µM; in the assay with HT29 colon, 50.7 µM; with KM12 colon, greater than 100 µM; with TK-10 renal, greater than 100 µM; in the assay on NCI-H226 lung, 72.7 µM. The values for the TGI with A549 NSCLC, in the assay with LOX IMVI melanoma and with SW-620 colon were greater than 100 µM, 66 µM and greater than 100 µM, respectively.
With `CC(C)(C)c1ccccc1N1C(=O)c2ccc3c4c(ccc(c24)C1=O)N(c1ccccc1C(C)(C)C)C3=O`, the TGI in the assay with HCT-116 colon, in the assay with M14 melanoma, in the assay with HT29 colon, in the assay with KM12 colon, in the assay with SK-MEL-2 melanoma and in the assay with A549 NSCLC was greater than 100 µM throughout. In the assay on SW-620 colon, the TGI is greater than 100 µM.
For the compound `N#CN1C2CCC1CC(=O)C2`, the TGI with HCT-116 colon, in the assay on M14 melanoma, in the assay with HT29 colon, with KM12 colon, in the assay with SK-MEL-2 melanoma and in the assay on TK-10 renal was greater than 100 µM throughout. The concentration for total growth inhibition (TGI) in the assay on A549 NSCLC, in the assay on LOX IMVI melanoma and with SW-620 colon was greater than 100 µM throughout.

Values taken from PubChem BioAssay (NCI).
